Values quoted from earlier work, collected in PMC11439047 (Nature Communications, 2024).

Tested on: P2X1 receptor
Settings: cited from earlier work

In the case of `O=C(O)c1cc(C(=O)O)c(C(=O)N(Cc2cccc(Oc3ccccc3)c2)[C@H]2CCCc3ccccc32)cc1C(=O)O` [A-317491], the “activity for the P2X1 receptor” value is listed as “weak activity”.
